ChEMBL document CHEMBL5634101, “Discovery of NLRP3 inhibitors using machine learning: Identification of a hit compound to treat NLRP3 activation-driven diseases” (Eur J Med Chem, 2023)

Molecular target: NACHT, LRR and PYD domains-containing protein 3 (Homo sapiens, UniProt Q96P20)
Assay: Inhibition of NLRP3 inflammasome activation in PMA-differentiated human THP-1 cells assessed as reduction in IL-1beta secretion pre-stimulated with PMA for 24 hrs followed by compound addition and measured after 30 mins by ELISA
Assay type: cell-based

NACHT, LRR and PYD domains-containing protein 3, sequence (Q96P20 whole entry, the tested form may be a part): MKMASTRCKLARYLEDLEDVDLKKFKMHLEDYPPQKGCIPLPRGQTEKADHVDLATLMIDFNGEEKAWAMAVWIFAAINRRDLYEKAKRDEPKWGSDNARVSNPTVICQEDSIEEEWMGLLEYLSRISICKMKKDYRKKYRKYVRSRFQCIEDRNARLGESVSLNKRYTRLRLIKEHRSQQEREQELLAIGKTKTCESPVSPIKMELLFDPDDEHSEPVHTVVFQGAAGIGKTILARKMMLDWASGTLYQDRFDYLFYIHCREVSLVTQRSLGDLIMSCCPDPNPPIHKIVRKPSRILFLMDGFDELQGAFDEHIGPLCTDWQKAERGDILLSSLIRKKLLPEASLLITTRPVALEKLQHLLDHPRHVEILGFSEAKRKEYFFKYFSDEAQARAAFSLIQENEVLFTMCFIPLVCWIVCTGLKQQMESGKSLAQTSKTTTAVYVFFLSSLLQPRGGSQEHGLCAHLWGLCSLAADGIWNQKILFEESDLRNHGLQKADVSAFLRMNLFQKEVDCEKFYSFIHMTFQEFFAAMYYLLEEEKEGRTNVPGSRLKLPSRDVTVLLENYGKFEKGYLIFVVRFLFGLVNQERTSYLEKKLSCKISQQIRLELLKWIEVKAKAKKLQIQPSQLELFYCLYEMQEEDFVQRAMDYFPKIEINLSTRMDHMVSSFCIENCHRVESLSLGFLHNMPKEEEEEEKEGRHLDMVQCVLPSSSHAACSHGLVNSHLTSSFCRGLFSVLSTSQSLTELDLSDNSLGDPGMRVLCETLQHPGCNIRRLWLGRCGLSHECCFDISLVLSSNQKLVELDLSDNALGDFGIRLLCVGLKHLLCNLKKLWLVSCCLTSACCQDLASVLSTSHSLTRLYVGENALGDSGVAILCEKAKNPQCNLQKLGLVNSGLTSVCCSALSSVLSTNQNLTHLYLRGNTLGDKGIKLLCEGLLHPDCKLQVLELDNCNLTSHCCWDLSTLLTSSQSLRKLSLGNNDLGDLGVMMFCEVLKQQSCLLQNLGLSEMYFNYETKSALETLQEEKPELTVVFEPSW

- IC50: 13.9 µM
SMILES: O=C(O)CCCCCN1C(=O)/C(=C/c2c[nH]c3ccccc23)SC1=S
